Assay [1] has as its system patient derived acute myeloid leukemia (AML) cell lines. As to the kind of experiment: Cell growth inhibition assay, patient derived AML cells. The class given is cell-based, human. The conditions noted are these: 48 h. How it is done: The patient derived acute myeloid leukemia (AML) cells were obtained after written informed consent under the Institut Paoli Calmette (IPC) institutional review board approval and under the strict compliance of the Helsinki declaration on medical research involving human subjects. […] Each compound was added at different concentrations (combinations of six concentrations) to each well, and cell cultures were incubated for 48 h. Vehicle (H2O) was used as a control, and all compounds were tested in a constant percentage of vehicle. Cell outgrowth was measured using the CellTiter-Glo luminescent cell viability assay as described by the manufacturer (Promega, Ref G7571 Madison, Wis., USA) using a Centro (Berthold, France) plate reader. In each experiment, each point represents the average of triplicates in cell culture. The experimental data are analyzed using a computer program, Graphpad Prism (GraphPad Software, Inc.

Assay [2] deals with PBMC Healthy voluntary donor. As to the kind of experiment: Cell growth inhibition assay, PBMC of healthy donors. Format: cell-based, human. How it is done: Each compound was added at different concentrations (combinations of six concentrations) to each well, and cell cultures were incubated for 48 h. Vehicle (H2O) was used as a control, and all compounds were tested in a constant percentage of vehicle. Cell outgrowth was measured using the CellTiter-Glo luminescent cell viability assay as described by the manufacturer (Promega, Ref G7571 Madison, Wis., USA) using a Centro (Berthold, France) plate reader. In each experiment, each point represents the average of triplicates in cell culture. The experimental data are analyzed using a computer program, Graphpad Prism (GraphPad Software, Inc.

A further assay has as its system B16F10. The experiment in a line: CellTiter-Glo cell viability assay (example 57). Format: cell-based, human. The conditions noted are these: Mus musculus, B16-F10; B16F10 (Melanoma); Cell Titer-Glo; 72 h. (ATP-based viability assays read luminescence as a measure of living cells.)
A further assay concerns A375. The experiment in a line: Cell proliferation assay at 10 μM. The conditions noted are these: Homo sapiens, A-375, 72 h, read-out: Cell viability observed at 10 μM. The class given is cell-based, human. How it is done: (§1) The human melanoma cell line A375 and colorectal carcinoma cell line HCT-116 were cultured in Dulbecco's modified Eagle's medium supplemented with 10% fetal bovine serum and 1% Penicillin-Streptomycin. The human leukemia cell line MOLM-14 was cultured in Minimum Essential Medium Alpha Medium supplemented with 10% Fetal Bovine Serum and 1% Penicillin-Streptomycin. All the cell lines were maintained at 37° C. with 5% CO2.
(§2) Briefly, adherent cells, A375 and HCT-116 cells were respectively plated at 800 or 5,000 cells per well onto 96-well plates in 90 μL of media per well and were allowed to grow overnight before the assay.
(§3) Compounds were added at different concentrations to each well, and cell cultures were incubated for 72 h. Vehicle (DMSO or H2O) was used as a control, and all compounds were tested in a constant percentage of vehicle. Cell outgrowth was measured using for adherent cells CellTiter […] Aqueous One Solution Cell Proliferation Assay (Promega) and for cell suspension, Sulforhodamine B colorimetric assay as described in Vichai et al. (Vichai, V. and Kirtikara, K. Nat. Protoc. 2006 (1) 1112-1116). Absorbance was measured using an Infinite F200 Pro or Sunrise TECAN plate reader.
(§4) In each experiment, each point represents the average of two replicates in cell culture.
(§5) Results are presented in Table 1 below for concentrations of 10 μM of tested compounds.

The test system of assay [3] is HCT-116. As to the kind of experiment: Cell proliferation assay at 10 μM. The class given is cell-based. Particulars: Homo sapiens, HCT-116, 72 h, read-out: Cell viability observed at 10 μM. Here is the method: as §1, §2, §3, §4, §5
Assay [4] concerns MOLM-14. The experiment in a line: Cell proliferation assay at 10 μM. Particulars: Homo sapiens, MOLM-14, 72 h, read-out: Cell viability observed at 10 μM. The class given is cell-based, human. How it is done: as §1
For MOLM-14 cell line, which grows in suspension, 30,000 cells were plated onto 96-well plates immediately before the assay.
as §3, §4, §5

The subject of the next assay is A-375. As to the kind of experiment: EC50 determination in cancer cell lines. Format: cell-based, human. The conditions noted are these: Homo sapiens, A-375, 72 h. Here is the method:
as §3
(§6) The human melanoma cell line A375, colorectal carcinoma cell line HCT-116, hepatocellular carcinoma cell line HepG2 were cultured in Dulbecco's modified Eagle's medium supplemented with 10% fetal bovine serum and 1% Penicillin-Streptomycin. The human melanoma cell lines SK-MEL-28 and SK-MEL-5 were cultured in Minimum Essential Medium. The colorectal carcinoma cell lines HT-29 and Colo205 were respectively cultured in Mc Coy's and RPMI media. The human leukemia cell lines MV4-11 and KG-1 were cultured in Iscove's Modified Dulbecco's Media. The human leukemia cell line MOLM-14 was cultured in Minimum Essential Medium Alpha Medium supplemented with 10% Fetal Bovine Serum and 1% Penicillin-Streptomycin All culture media were supplemented with 10% fetal bovine serum and 1% Penicillin-Streptomycin except for MV4-11 cell line 20% fetal bovine serum and 1% Penicillin-Streptomycin. All the cell lines were maintained at 37° C. with 5% C02.
(§7) Briefly, adherent cells, A375, HCT-116, HepG2, SK-MEL-28, SK-MEL-5, HT-29 and Colo205 cells were respectively plated at 800, 5,000, 7,000, 2,500, 3,000-5,000, 5,000 or 5,000 cells per well onto 96-well plates in 90 μL of media per well and were allowed to grow overnight before the assay. For MV4-11 and KG-1 cells that grow in suspension, 40,000-60,000 cells were plated onto 96-well plates immediately before the assay. MOLM-14 cell line, that grow in suspension, 30,000 cells were plated onto 96-well plates immediately before the assay.
(§8) The cell growth measure was the same as described in example 51.
(§9) The experimental data are analyzed using a computer program, Graphpad Prism (GraphPad Software, Inc. La Jolla, Calif.) and EC50 values were determined as the dose of compound required to reduce absorbance values to 50% of the signal obtained for vehicle treated cell cultures and were a mean of at least two independent experiments except for EC50 values with (*) where […].

Assay [5] deals with HCT-116. As to the kind of experiment: EC50 determination in cancer cell lines. The class given is cell-based, human. Particulars: Homo sapiens, HCT-116, 72 h. Here is the method:
as §3, §6
Briefly, adherent cells, A375, HCT-116, HepG2, SK-MEL-28, SK-MEL-5, HT-29 and Colo205 cells were respectively plated at 800, 5,000, 7,000, 2,500, 3,000-5,000, 5,000 or 5,000 cells per well onto 96-well plates in 90 μL of media per well and were allowed to grow overnight before the assay. For MV4-11 and KG-1 cells that grow in suspension, 40,000-60,000 cells were plated onto 96-well plates immediately before the assay. MOLM-14 cell line, that grow in suspension, 30,000 cells were plated onto 96-well plates immediately before the assay. […]
as §9

In the next assay the test system is KG-1. As to the kind of experiment: EC50 determination in cancer cell lines. Format: cell-based. Particulars: Homo sapiens, 72 h. Here is the method: as §3, §6, §7, §8, §9
For assay [6], the system named is MOLM-14. The experiment in a line: EC50 determination in cancer cell lines. Format: cell-based. Particulars: Homo sapiens, 72 h. Here is the method: as §3, §6, §7, §8, §9
Another assay relates to MV4-11. The experiment in a line: EC50 determination in cancer cell lines. Format: cell-based. The conditions noted are these: Homo sapiens, 72 h. How it is done:
as §3, §6, §7, §8, §9

For another assay, the system named is SK-MEL-28. As to the kind of experiment: EC50 determination in cancer cell lines. Format: cell-based. The conditions noted are these: Homo sapiens, 72 h. Here is the method:
as §3, §6, §7, §8, §9

In another assay the test system is SK-MEL-5. As to the kind of experiment: EC50 determination in cancer cell lines. Particulars: Homo sapiens, 72 h. Format: cell-based. How it is done:
as §3, §6, §7, §8, §9

Another assay deals with HepG2. As to the kind of experiment: EC50 determination in cancer cell lines. The class given is cell-based, human. The conditions noted are these: Homo sapiens, HepG2, 72 h. Here is the method:
as §3, §6, §7, §8, §9

A further assay relates to Colo205. As to the kind of experiment: EC50 determination in cancer cell lines. Format: cell-based. Particulars: Homo sapiens, COLO 205, 72 h, * n>2. How it is done: as §3, §6, §7, §8, §9
The test system of a further assay is HT-29. The experiment in a line: EC50 determination in cancer cell lines. Format: cell-based. The conditions noted are these: Homo sapiens, 72 h, * n>2. How it is done:
as §3, §6, §7, §8, §9

In patent publication US10179770B2, “Quinolines derivatives as novel anticancer agents” (GENOSCIENCE PHARMA, priority 2013, dated 2019) one finds EC50 and viability data, which are given here for five compounds.

Structures can show the parent of a compound that is named as a salt. Some results are limits rather than exact numbers.

As usually defined, the EC50 is the concentration that produces a half-maximal response. A word on the viability: it is the share of living cells, or the viability signal relative to a control.

As to `Nc1ccn([C@@H]2O[C@H](CO)[C@@H](O)[C@@H]2O)c(=O)n1` [AraC, cytosine arabinoside, reference compound], the EC50 in assay [1] (Patient 3, subtype Tri8) was 44 µM; in assay [1] (Patient 8, subtype FLT3−), 51 µM; in [1] (Patient 9, subtype FLT3+) it was 21 µM; in [1] (Patient 10, subtype Inv 3), 36 µM; in [1] (Patient 12, subtype 5 & 7) it was > 40 µM; in assay [1] (Patient 13, subtype MLL), 3 µM. The EC50 in [1] (Patient 16, subtype Inv 3) is 11 µM; in assay [2] (PBMC Healthy voluntary donor 1), 13 µM.
`COc1cccc2c1C(=O)c1c(O)c3c(c(O)c1C2=O)C[C@@](O)(C(=O)CO)C[C@@H]3O[C@H]1C[C@H](N)[C@H](O)[C@H](C)O1` [Doxorubicine, doxorubicin] had an EC50 in the assay on B16F10 of 0.2 µM.
As to `CC(C)(C)NC1CCN(c2cc(-c3ccc(Cl)c(Cl)c3)nc3ccccc23)CC1` [XIV-8, 2-(3,4-dichloro-phenyl)-4-(4-N-tert-butylamino-piperidin-1-yl)quinoline dihydrochloride], the viability at 10 µM in the assay with A375, in the assay with HCT-116 [3] and in the assay with MOLM-14 [4] was < 20% in each case. Also, the EC50 in the assay on A-375 turned out to be 6 µM; with HCT-116 [5], 5 µM; in the assay on KG-1, 4 µM; with MOLM-14 [6], 5 µM; in the assay on MV4-11, 4 µM; in the assay on SK-MEL-28 it was 4 µM. Moreover, the EC50 is 6 µM in the assay with SK-MEL-5; 8 µM in [1] (Homo sapiens, Patient 3, subtype Tri8); 25 µM in assay [1] (Homo sapiens, Patient 8, subtype FLT3−); 40 µM in assay [1] (Homo sapiens, Patient 9, subtype FLT3+); 20 µM in [1] (Homo sapiens, Patient 10, subtype Inv 3); > 40 µM in [1] (Homo sapiens, Patient 12, subtype 5 & 7). Moreover, the half-maximal effective concentration (EC50) is > 40 µM in assay [1] (Homo sapiens, Patient 13, subtype MLL); 17 µM in assay [1] (Homo sapiens, Patient 16, subtype Inv 3); 31 µM in assay [2] (Homo sapiens, PBMC, PBMC Healthy voluntary donor 1); 14 µM in assay [2] (Homo sapiens, PBMC, PBMC Healthy voluntary donor 2).
Take `Clc1ccc2c(NC3CCN(Cc4ccccc4)CC3)cc(-c3ccccc3)nc2c1` [XXVIII-2, 7-chloro-2-phenyl-4-[(N-benzylpiperidin-4-yl)-amino]quinoline hydrochloride salt]: the viability at 10 µM with A375, with HCT-116 [3] and with MOLM-14 [4] was < 20% each time. The EC50 with A-375 was found to be 9 µM; in the assay on HepG2, 26 µM; with HCT-116 [5] it was 12 µM; in the assay on Colo205, 9 µM; with HT-29, 13 µM; in the assay on KG-1, 10 µM. In addition, the EC50 in the assay on MOLM-14 [6] was determined as 10 µM; with MV4-11 it was 5 µM; in the assay on SK-MEL-28, 7 µM; in the assay on SK-MEL-5 it was 9 µM.
Take `Clc1ccc2c(CNC3CCN(Cc4ccccc4)CC3)cc(-c3ccccc3)nc2c1` [XXXIII-2, 7-chloro-2-phenyl-4-[(N-benzyl-piperidin-4-yl)aminomethyl]quinoline hydrochloride salt]: the viability at 10 µM in the assay with A375 fell in the range of 40 to 60%; in the assay with HCT-116 [3] it was 20 to 40%; in the assay on MOLM-14 [4] it was 40 to 60%. Besides, the EC50 is 9 µM in the assay on A-375; 16 µM in the assay with HepG2; 13 µM in the assay on HCT-116 [5]; 9 µM in the assay with Colo205; 14 µM in the assay on HT-29; 8 µM with KG-1. The EC50 stood at 9 µM with MOLM-14 [6], 5 µM in the assay on MV4-11, 6 µM with SK-MEL-28 and 6 µM with SK-MEL-5.
